Source: patent US20220289657A1, “COMPOSITION FOR PREVENTING OR TREATING BACTERIAL INFECTIOUS DISEASE COMPRISING 4-GINGEROL DERIVATIVE COMPOUND AS ACTIVE INGREDIENT” (KOREA UNIVERSITY RESEARCH AND BUSINESS FOUNDATION, SEJONG …, priority 2019, published 2022)

What was measured:
LasR = target: T1, LasR (Pseudomonas aeruginosa, UniProt P25084); details: previous studies; cited from earlier work
T1 construct: expressed in transfected cells; host or cells: E. coli DH5a co-transformed with pJN105L and pSC11 (lasI::lacZ)

rhlA = test: RT-qPCR analysis of rhlA expression in biofilm cells; type: cell-based, Pseudomonas aeruginosa; details: 10 μM, FIG. 9B
Experimental: P. aeruginosa (OD 595 nm=1.0) overnight cultured with a positive control or compound (0-10 μM) was diluted (1:20) in an AB medium in a borosilicate bottle. Afterward, after culture for 24 hours at 37° C., biofilm cells were collected for RNA extraction. Total RNA was extracted using a TRI reagent (Molecular Research Center, OH, USA) according to the manufacturer's instruction. To quantify and compare QS-related gene expression levels, RT-qPCR was performed. For RT-qPCR, a SYBR Premix Ex Taq™ (Takara, Shiga, Japan), a CFX-96 real-time system (Bio-Rad, Hercules, Calif. USA), and a QS-related gene primer set were used. The thermal profile of the RT-qPCR is as follows: 40 cycles of initial denaturation for 10 seconds at 95° C., denaturation for 10 seconds at 95° C., annealing for 10 seconds at 60° C., and extension for 34 seconds at 63° C. A fluorescent signal intensity was collected at the end of the elongation step.

Pseudomonas aeruginosa [1] = test: Dynamic biofilm formation assay (drip-flow reactor, CLSM); type: cell-based; details: 48 hours, 10 μM, smaller volume and thickness than control
Experimental: Glass slides were placed in a drip-flow reactor, and an AB medium containing 5% P. aeruginosa (OD 595 nm=1.0) was added along with a positive control or compound (0 to 10 μM) and the reactor was continuously operated using peristaltic pumps (Masterflex C/L tubing pumps, Cole-Parmer, Ill., USA) at 0.3 ml/min. After the above-described process was carried out at 37° C. for 48 hours, unattached biofilm cells were removed with PBS. The remaining biofilm cells were stained with DAPI (Sigma-Aldrich) for 10 minutes, and observed by confocal laser scanning microscopy (CLSM; Carl Zeiss LSM700, Jena, Germany). The CLSM image of the biofilm cells was obtained with a 20× objective lens (W NAchroplanX20/0.5W (DIC) M27) under blue fluorescence light (excitation wavelength: 350 nm, emission wavelength: 470 nm) using a Z-stack mode of the Zen 2011 program. The volume and thickness of the biofilm were measured using Comstat2 of the ImageJ program based on a CLSM image.

Pseudomonas aeruginosa [2] = test: Bacterial growth under static condition (OD 595 nm of suspended culture); type: cell-based; details: for activity at 10 µM / activity at 100 µM: Pseudomonas aeruginosa, 24 h; for activity at 10 µM: read-out: Relative biological activity (%) Bacterial growth 10; for activity at 100 µM: read-out: Relative biological activity (%) Bacterial growth 100
Experimental: Pseudomonas aeruginosa (P. aeruginosa) (OD 595 nm=1.0) was cultured overnight, and diluted in an AB medium (1:20; 300 mM NaCl, 50 mM MgSO4, 0.2% vitamin-free casamino acids, 10 mM potassium phosphate, 1 mM L-arginine, and 1% glucose, pH 7.5) together with a positive control or compound (0100 μM) in a borosilicate bottle. The resulting mixture was incubated without shaking at 37° C. for 24 hours, and to measure growth inhibition activity. OD 595 nm of the suspended culture was measured using a multimode plate reader. Biofilm cells attached to the bottle were washed twice with phosphate-buffered saline (PBS; 137 mM NaCl, 2.7 mM KCl, 10 mM Na2HPO4, and 2 mM KH2PO4, pH 7.2). Afterward, the remaining biofilm cells were stained with 0.1% crystal violet for 10 minutes, and to remove the unbound crystal violet, washed with deionized water. The crystal violet […] to the biofilm cells was eluted with 100% ethanol, and the OD of the eluted ethanol sample was measured at 545 nm using a multimode plate reader.

Pseudomonas aeruginosa [3] = test: EPS analysis of drip-flow biofilm cells (carbohydrates, proteins); type: cell-based; details: 10 μM
Experimental: EPS analysis was carried out with the biofilm cells attached to the slides after the operation of the drip-flow reactor. The biofilm cells that were centrifuged were re-suspended with 0.01M KCl, and for the analysis of carbohydrates and proteins, the cells were disrupted with a sonicator (VCX 750, SONICS, Newtown, Conn., USA) for 5 seconds at a level of 3.5 Hz, followed by stopping for 5 seconds, which was repeated 4 times. A supernatant of the cell-disrupted suspension was filtered through a 0.22 μm membrane filter (Millex filter, Carl Roth, Karlsruhe, Germany). For protein analysis, a mixture containing 40 μL of the filtrate and 200 μL of a Lowry reagent (L3540, Sigma-Aldrich) was incubated at room temperature for 10 minutes. Afterward, 20 μL of a Folin-Ciocalteu reagent (Sigma-Aldrich) was added and incubated at room temperature for 30 minutes, followed by measuring OD at 750 nm using a multimode plate reader. A protein amount was quantified at OD 750 nm or OD 595 nm. For carbohydrate analysis, a mixture containing 50 μL of the filtrate and 150 μL of 99.9% sulfuric acid was incubated at room temperature for 30 minutes. Afterward, 5% phenol was added, followed by incubation at 90° C. for 5 minutes. OD was measured at 490 nm using a multimode plate reader. The amount of carbohydrates was quantified at OD 490 nm or OD 595 nm.

[4] = test system: Pseudomonas aeruginosa-injected T. molitor larvae; test: Mortality of Pseudomonas aeruginosa-injected T. molitor larvae; type: in vivo, Tenebrio molitor; details: 10 μM; 20 days of incubation; FIG. 10
Experimental: The mortality of Tenebrio molitor (T. molitor) larvae was measured with a positive control or compound (0-10 μM) by the method used as in previous research. Overnight-cultured P. aeruginosa (OD 595 nm=1.0) was centrifuged for 10 minutes at 10,000 rpm. The supernatant was filtered through a 0.22-μm filter, and injected into the larvae using a syringe needle. The larvae were stored in a petri dish for 20 days at 25° C. The mortality of the larvae was measured every 5 days.

[5] = test system: rhlR variant of P. aeruginosa; test: Pyocyanin production assay, rhlR variant; type: cell-based, Pseudomonas aeruginosa; details: 10 μM, FIG. 9C
Experimental: P. aeruginosa cultured overnight with a positive control or compound (0-10 μM) was inoculated in an AB medium, incubated for 24 hours at 37° C., and centrifuged for 10 minutes at 10,000 rpm. To extract pyocyanin, the supernatant was reacted with 50% trifluoroacetic acid (TFA, Sigma-Aldrich) for 1 hour at 37° C. The reacted supernatant was centrifuged for 10 minutes at 10,000 rpm, and filtered through a 0.22-μm filter. […] Specific HPLC conditions are as follows: mobile phase deionized water; TFA (99:1); injection volume:10 μL; temperature: 25° C.; and flow rate: 0.5 mL/min. The retention time of pyocyanin (Sigma-Aldrich) is 20 minutes. To measure a pyocyanin amount, when the retention time was 20 minutes, the height of an analysis peak was detected.

T1 sequence (P25084 whole entry): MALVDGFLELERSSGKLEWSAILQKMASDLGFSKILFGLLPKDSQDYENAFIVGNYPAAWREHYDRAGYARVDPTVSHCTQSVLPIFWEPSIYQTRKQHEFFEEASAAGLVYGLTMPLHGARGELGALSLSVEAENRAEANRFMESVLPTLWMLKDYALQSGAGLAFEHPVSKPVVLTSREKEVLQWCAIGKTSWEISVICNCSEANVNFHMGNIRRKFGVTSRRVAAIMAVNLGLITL

CCCCC[C@H](O)CC(=O)CCc1ccc(O)c(OC)c1 [Compound 1c, (S)-6-gingerol, reference compound]
LasR antagonistic activity (reported previously) (LasR): LasR antagonistic activity
downregulation of rhlA expression of biofilm cells (rhlA): 38%
biofilm appearance under flow condition vs control (Pseudomonas aeruginosa [1]): thinner and more dispersed biofilm
activity at 10 µM (Pseudomonas aeruginosa [2]): 96%
activity at 100 µM (Pseudomonas aeruginosa [2]): 101%

CCCC(=O)C#Cc1ccc(F)c(F)c1 [Compound 30, 1-(3,4-Difluorophenyl)hex-1-yn-3-one]
reduction of the amount of carbohydrates in EPS (Pseudomonas aeruginosa [3]; FIG. 8B): 39%
reduction of the amount of proteins in EPS (Pseudomonas aeruginosa [3]; FIG. 8C): 72%
effect on cell growth (in words) (Pseudomonas aeruginosa [2]; 100 PM [sic] (100 μM)): no effect
activity at 10 µM (Pseudomonas aeruginosa [2]): 103%
activity at 100 µM (Pseudomonas aeruginosa [2]): 99%
larvae survived to the end of the incubation [4]: approximately 80%
virulence factor (pyocyanin) production vs control of the rhlR variant [5]: no difference
